# In ChEMBL document CHEMBL1201862, “PubChem BioAssay data set” (2004):
# The source made the active and inactive calls.
# Columns and labels:
# [1] = biological target: T1, Mannose-6-phosphate isomerase (Homo sapiens, UniProt P34949); test: PMI enzyme inhibitors, confirmation, biochemical, fluorescence intensity (AID 1535)
# T1 sequence (P34949 whole entry): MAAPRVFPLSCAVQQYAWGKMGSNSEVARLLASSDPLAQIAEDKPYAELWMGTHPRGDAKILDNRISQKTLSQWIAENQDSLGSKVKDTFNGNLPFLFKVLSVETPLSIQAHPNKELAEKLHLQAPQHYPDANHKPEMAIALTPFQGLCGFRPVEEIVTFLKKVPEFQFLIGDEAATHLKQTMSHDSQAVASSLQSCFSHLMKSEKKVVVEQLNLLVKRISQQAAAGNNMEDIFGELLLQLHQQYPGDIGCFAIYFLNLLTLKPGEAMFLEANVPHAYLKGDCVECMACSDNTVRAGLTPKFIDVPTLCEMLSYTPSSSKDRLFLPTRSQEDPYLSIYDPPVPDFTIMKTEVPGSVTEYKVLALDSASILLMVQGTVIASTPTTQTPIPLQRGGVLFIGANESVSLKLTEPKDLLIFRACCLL
# [2] = biological target: Phosphomannomutase 2 (Homo sapiens, UniProt O15305); test: Counter screen SAR assay for PMM2 inhibitors via a fluorescence intensity assay. [Related pubchem assays (depositor defined):AID1545, AID1574]
# [3] = biological target: T2, Microphthalmia-associated transcription factor (Homo sapiens, UniProt O75030); test: TRPM1 promoter luciferase signal decrease, dose response, MITF inhibitor project, cell-based, SK-MEL-5, cherry-picked, set 3 (AID 493073); type: functional
# T2 sequence (O75030 whole entry): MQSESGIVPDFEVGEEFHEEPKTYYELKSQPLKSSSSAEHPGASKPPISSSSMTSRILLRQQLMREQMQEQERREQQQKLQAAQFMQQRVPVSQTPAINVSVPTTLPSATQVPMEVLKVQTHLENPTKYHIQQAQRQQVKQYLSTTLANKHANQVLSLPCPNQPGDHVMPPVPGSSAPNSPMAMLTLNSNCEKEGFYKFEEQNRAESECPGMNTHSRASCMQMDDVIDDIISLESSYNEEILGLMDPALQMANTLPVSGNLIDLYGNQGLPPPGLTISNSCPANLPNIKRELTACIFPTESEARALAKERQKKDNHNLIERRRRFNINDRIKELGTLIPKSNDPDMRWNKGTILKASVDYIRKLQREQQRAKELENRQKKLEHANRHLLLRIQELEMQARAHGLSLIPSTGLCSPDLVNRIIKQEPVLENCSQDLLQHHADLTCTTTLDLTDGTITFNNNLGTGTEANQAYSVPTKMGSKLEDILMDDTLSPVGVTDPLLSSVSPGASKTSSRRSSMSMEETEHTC
# [4] = HepG2 cell cytotoxicity, dose response, cytotoxicity control for non-replicating M. tuberculosis project (AID 489018); type: functional; settings: Mycobacterium tuberculosis
# [5] = THP-1 cell cytotoxicity, dose response, cytotoxicity control for non-replicating M. tuberculosis project (AID 489025); type: functional
# [6] = biological target: Tumor necrosis factor (Homo sapiens, UniProt P01375); test: TNFa-triggered NF-kB activation inhibitors, SAR follow-up, cell-based, revised (AID 2337); type: functional
# [7] = Vero E6 cell cytotoxicity, dose response, cytotoxicity control for non-replicating M. tuberculosis project, secondary assay (AID 492998); type: functional, VeroE6; settings: Vero C1008
# [8] = cells; type: functional
# [9] = test system: Streptococcus; test: Group A Streptococcus viability loss, dose response, counter-screen for streptokinase expression inhibitor project, luminescence, BacTiterGlo (AID 1915); type: functional, organism-based;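 further: potency for reduction of bacterial viability or growth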
# [10] = test system: HEK293; test: cells; settings: Homo sapiens
# [11] = Shn3 3'UTR reporter inhibitors, dose response, cell-based, Clone20 osteoblasts, firefly luciferase, cherry-picked (AID 624132); type: functional;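 further: firefly luciferase luminescence from reporter carrying the Shn3 3'UTR in osteoblasts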
# [12] = control 3'UTR Renilla luciferase suppression, dose response, counter-screen for Shn3 inhibitor project, cell-based, Clone20-Shn3RL, cherry-picked (AID 624133); type: functional
# [13] = A Cell Based Secondary Assay To Explore Cytotoxicity of Compounds that Sensitize Mycobacterium Tuberculosis to Beta-Lactam Antibiotics.; type: functional
# [14] = test system: Streptococcus sp. 'group A'; test: growth inhibition of control SK(-) GAS strain, dose response, counter-screen for streptokinase expression inhibitor project, luminescence, kanamycin, BacTiterGlo, confirmation (AID 1900); type: functional, organism-based
# [15] = HepG2 cell cytotoxicity, dose response, cytotoxicity control for Shn3 inhibitor project, CellTiter-Glo, cherry-picked (AID 624134); type: functional, cell-based
# [16] = biological target: T3, Nucleotide-binding oligomerization domain-containing protein 1 (Homo sapiens, UniProt Q9Y239); test: NOD1 signaling inhibitors, SAR follow-up, revised (AID 2333); type: functional
# T3 sequence (Q9Y239 whole entry): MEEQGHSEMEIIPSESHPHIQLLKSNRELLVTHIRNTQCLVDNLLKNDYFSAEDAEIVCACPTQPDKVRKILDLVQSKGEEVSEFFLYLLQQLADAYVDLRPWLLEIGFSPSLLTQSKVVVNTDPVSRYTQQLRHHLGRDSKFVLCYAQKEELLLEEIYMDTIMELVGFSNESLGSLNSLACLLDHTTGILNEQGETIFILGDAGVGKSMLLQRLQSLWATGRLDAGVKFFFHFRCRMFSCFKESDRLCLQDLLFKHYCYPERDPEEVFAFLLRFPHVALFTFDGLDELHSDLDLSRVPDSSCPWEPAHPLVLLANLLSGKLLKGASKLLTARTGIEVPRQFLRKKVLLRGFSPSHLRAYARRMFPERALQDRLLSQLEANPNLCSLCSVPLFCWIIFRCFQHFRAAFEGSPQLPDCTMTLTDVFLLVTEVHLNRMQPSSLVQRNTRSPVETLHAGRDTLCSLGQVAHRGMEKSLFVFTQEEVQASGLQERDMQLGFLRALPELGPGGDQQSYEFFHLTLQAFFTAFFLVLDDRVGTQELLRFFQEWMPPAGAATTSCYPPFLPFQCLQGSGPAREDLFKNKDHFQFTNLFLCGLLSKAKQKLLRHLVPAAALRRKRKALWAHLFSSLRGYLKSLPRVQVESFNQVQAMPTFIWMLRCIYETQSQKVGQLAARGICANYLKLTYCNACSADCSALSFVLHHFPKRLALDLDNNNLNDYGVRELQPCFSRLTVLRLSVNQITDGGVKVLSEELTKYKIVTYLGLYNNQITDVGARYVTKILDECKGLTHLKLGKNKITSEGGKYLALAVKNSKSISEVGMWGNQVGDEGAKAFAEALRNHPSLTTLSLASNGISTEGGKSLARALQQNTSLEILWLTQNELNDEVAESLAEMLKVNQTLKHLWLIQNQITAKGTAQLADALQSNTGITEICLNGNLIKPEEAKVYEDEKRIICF
# [17] = test system: HEK293; test: cells; settings: Homo sapiens; remark: listed apart in the source
# [18] = test system: HEK293; test: cells; settings: Homo sapiens; remark: listed apart in the source
# [19] = biological target: T4, Voltage-gated N-type calcium channel alpha-1B subunit/Amyloid beta A4 precursor protein-binding family A member 1 (Homo sapiens, UniProt Q00975+Q02410); type: protein assay
# [20] = biological target: Eukaryotic translation initiation factor 4E (Mus musculus, UniProt P63073); test: eIF4E–eIF4G protein interaction inhibitors, dose response, biochemical, TR-FRET (AID 855); type: functional;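 further: potency for disrupting eIF4E binding to eIF4GI seen as loss of FRET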
# [21] = biological target: T4, Voltage-gated N-type calcium channel alpha-1B subunit/Amyloid beta A4 precursor protein-binding family A member 1; test: disruptors of Mint-PDZ/N-type channel peptide interaction – biochemical, HTRF, SAR follow-up (AID 2489); type: functional
# [22] = biological target: Kallikrein-7 (Homo sapiens, UniProt P49862); test: Fluorescence Intensity-based biochemical primary high throughput dose response assay to identify activators of kallikrein-7 (K7) zymogen.
# [23] = biological target: T4, Voltage-gated N-type calcium channel alpha-1B subunit/Amyloid beta A4 precursor protein-binding family A member 1; test: disruptors of Mint-PDZ/N-type channel peptide interaction – biochemical, HTRF, set 2, SAR follow-up (AID 434980); type: functional
# [24] = biological target: T4, Voltage-gated N-type calcium channel alpha-1B subunit/Amyloid beta A4 precursor protein-binding family A member 1; type: protein assay; remark: listed apart in the source
# [25] = biological target: SUMO E1/E2 (Homo sapiens, UniProt P63279+Q9UBE0+Q9UBT2); test: SAR analysis of SUMOylation using HTRF in an in-Vitro dose response assay. [Related pubchem assays (depositor defined):AID2006, AID2011, AID2018, AID2069, AID2658]; type: functional
# [26] = biological target: Induced myeloid leukemia cell differentiation protein Mcl-1 (Homo sapiens, UniProt Q07820); type: functional
# T4 sequence (Q00975 whole entry): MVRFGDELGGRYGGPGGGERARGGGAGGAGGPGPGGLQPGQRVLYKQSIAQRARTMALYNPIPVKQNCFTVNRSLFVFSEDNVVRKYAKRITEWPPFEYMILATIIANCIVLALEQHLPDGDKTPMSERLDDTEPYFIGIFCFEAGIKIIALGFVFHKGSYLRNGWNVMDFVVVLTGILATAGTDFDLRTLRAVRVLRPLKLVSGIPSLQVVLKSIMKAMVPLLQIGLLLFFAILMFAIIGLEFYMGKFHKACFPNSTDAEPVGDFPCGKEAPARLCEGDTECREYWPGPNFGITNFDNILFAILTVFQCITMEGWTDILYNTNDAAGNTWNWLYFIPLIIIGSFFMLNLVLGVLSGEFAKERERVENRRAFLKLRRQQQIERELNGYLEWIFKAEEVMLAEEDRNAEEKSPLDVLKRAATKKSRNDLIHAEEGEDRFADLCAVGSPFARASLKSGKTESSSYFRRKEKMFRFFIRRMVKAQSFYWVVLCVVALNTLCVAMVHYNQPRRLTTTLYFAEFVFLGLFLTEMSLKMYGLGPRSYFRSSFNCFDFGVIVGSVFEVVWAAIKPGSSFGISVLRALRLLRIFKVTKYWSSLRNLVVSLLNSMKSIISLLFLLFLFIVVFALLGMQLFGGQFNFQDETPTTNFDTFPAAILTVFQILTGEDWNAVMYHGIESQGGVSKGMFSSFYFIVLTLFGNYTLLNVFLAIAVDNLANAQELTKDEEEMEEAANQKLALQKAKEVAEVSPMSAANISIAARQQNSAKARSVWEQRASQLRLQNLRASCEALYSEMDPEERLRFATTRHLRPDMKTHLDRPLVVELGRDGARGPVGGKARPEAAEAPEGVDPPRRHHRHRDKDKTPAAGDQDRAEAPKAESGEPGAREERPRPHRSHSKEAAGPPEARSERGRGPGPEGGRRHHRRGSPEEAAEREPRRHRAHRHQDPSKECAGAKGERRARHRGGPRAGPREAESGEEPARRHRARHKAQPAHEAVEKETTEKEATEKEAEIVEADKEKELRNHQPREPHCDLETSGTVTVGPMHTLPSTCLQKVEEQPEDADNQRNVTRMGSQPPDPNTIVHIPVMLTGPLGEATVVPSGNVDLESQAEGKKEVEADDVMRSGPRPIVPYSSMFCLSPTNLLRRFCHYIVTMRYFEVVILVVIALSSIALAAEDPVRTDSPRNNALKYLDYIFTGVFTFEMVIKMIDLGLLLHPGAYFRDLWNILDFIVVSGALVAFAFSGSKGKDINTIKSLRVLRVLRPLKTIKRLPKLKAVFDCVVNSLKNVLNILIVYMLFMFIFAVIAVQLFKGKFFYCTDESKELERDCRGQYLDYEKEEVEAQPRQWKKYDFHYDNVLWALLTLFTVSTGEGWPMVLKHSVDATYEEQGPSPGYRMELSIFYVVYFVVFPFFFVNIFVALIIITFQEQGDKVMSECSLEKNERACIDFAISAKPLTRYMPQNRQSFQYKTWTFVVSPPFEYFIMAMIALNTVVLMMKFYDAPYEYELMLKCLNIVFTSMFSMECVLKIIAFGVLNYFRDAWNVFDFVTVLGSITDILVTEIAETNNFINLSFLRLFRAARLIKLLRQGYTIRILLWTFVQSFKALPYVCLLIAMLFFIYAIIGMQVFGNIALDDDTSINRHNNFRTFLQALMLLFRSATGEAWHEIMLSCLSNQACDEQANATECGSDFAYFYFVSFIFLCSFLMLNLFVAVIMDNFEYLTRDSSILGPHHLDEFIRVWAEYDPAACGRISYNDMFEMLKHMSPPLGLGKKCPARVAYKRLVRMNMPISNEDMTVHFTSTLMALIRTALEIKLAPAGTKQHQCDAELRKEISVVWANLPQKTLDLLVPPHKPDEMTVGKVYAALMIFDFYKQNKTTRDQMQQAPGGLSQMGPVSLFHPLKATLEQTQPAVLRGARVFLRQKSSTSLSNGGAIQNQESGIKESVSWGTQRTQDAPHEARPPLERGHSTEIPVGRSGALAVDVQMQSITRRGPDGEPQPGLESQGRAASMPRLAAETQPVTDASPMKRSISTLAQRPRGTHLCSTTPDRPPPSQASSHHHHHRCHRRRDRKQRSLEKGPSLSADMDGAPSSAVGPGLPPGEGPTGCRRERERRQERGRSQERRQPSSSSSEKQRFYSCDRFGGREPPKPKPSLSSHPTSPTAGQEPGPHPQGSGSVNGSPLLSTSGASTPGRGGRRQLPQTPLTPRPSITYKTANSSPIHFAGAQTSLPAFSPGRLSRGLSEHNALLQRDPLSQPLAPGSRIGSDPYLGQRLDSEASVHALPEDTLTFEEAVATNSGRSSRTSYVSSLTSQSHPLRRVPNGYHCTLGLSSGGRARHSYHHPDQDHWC
# T4 sequence (Q02410 whole entry): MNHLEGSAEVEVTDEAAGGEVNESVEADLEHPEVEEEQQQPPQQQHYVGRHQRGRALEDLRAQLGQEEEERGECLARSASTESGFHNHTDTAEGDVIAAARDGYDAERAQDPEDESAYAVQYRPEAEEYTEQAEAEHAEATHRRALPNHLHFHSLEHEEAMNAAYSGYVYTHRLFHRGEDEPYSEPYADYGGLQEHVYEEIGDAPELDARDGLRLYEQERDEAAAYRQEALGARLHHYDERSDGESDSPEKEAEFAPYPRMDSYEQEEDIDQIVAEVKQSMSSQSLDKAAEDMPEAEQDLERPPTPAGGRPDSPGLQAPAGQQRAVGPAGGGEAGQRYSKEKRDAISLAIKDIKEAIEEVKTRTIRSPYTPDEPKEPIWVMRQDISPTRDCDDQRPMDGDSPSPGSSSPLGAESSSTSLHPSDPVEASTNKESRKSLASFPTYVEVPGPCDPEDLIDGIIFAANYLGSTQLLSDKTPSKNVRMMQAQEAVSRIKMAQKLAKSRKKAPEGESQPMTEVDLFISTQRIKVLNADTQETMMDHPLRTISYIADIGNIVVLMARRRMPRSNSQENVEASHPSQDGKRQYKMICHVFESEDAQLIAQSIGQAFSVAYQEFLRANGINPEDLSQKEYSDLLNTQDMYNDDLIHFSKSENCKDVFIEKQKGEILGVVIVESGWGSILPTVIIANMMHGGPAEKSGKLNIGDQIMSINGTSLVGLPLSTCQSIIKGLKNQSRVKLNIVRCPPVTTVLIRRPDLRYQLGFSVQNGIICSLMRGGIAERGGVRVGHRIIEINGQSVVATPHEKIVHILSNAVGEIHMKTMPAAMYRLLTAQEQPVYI
# Eukaryotic translation initiation factor 4E, sequence (P63073 whole entry): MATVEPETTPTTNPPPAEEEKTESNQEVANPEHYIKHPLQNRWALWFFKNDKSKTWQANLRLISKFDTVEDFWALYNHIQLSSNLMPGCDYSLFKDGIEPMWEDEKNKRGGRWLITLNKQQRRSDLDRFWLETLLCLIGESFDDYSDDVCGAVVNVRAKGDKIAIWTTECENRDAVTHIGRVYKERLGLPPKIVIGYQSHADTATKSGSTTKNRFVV
# Tumor necrosis factor, sequence (P01375 whole entry): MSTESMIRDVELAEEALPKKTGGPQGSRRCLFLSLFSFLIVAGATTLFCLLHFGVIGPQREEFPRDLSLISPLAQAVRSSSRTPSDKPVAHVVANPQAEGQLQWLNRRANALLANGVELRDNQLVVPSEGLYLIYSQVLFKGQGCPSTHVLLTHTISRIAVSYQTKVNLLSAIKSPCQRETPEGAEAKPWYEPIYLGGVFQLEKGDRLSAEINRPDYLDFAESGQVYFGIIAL
# SUMO E1/E2, sequence (Q9UBE0 whole entry): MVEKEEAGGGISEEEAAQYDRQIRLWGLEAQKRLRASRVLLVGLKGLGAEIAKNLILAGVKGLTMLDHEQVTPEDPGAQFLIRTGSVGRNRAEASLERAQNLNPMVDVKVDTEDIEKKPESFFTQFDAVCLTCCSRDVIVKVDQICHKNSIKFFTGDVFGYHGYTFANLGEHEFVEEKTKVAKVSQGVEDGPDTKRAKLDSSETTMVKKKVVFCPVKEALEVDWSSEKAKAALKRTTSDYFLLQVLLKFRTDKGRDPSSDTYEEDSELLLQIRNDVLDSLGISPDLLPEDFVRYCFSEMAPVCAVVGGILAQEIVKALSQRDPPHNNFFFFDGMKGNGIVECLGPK
# SUMO E1/E2, sequence (Q9UBT2 whole entry): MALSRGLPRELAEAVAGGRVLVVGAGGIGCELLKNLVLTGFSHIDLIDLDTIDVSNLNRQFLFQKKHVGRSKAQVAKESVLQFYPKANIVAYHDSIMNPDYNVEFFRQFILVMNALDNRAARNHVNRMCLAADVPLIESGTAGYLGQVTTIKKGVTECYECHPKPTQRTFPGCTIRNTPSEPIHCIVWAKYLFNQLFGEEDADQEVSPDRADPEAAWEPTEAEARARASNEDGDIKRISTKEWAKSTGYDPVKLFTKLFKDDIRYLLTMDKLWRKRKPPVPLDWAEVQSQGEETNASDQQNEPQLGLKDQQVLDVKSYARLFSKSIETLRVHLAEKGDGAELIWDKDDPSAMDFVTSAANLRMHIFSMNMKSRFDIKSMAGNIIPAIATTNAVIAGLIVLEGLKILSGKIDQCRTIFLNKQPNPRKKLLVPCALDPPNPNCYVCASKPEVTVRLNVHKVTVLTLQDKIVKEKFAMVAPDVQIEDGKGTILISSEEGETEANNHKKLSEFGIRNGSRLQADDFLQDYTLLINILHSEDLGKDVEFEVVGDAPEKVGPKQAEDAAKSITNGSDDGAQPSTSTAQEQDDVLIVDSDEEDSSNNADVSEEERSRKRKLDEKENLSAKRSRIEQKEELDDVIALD
# SUMO E1/E2, sequence (P63279 whole entry): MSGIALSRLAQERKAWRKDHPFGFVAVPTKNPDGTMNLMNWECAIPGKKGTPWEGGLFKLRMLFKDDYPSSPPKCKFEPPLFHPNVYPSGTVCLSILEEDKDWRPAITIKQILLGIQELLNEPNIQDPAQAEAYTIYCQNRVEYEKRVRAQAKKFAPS
# Phosphomannomutase 2, sequence (O15305 whole entry): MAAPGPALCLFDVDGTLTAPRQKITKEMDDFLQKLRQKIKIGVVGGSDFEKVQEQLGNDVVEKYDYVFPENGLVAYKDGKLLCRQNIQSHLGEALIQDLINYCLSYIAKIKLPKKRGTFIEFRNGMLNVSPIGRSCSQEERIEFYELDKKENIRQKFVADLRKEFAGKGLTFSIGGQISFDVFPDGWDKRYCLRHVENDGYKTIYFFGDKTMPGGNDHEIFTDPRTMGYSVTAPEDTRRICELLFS
compound,measurement,setting,value
Cc1cc2n(n1)SC(Nc1ccccc1)N2 (stereo unspecified),IC50,[1],> 50 µM (inactive)
same,IC50,[2],> 100 µM (inactive)
CCCCCn1c(=O)c(C(=O)Nc2cnccn2)c(O)c2ccccc21,AC50,[3],5.93 µM (active)
same,CC50,[4],13.5 µM (active)
same,CC50,[5],5.17 µM (active)
same,IC50,[6],> 20 µM (inactive)
same,CC50,[7],4.02 µM (active)
same,IC50,[8],3.04 µM (active)
same,EC50,[9],5.32 µM (active)
same,IC50,[10],> 20 µM (inactive)
same,AC50,[11],1.54 µM (active)
same,AC50,[12],3.1 µM (active)
same,CC50,[13],2.4 µM (active)
same,EC50,[14],3.24 µM (active)
same,AC50,[15],> 70 µM (inactive)
same,IC50,[16],11.3 µM (active)
CCCCSc1nc2c(=S)n(C)c(=O)n(C)c2[nH]1,EC50,[17],> 59.5 µM (inactive)
same,EC50,[18],> 59.5 µM (inactive)
CCN(CC)C(=O)COC(=O)c1cc(-c2ccco2)nc2ccccc12,IC50,[19],4.92 µM (active)
same,IC50,[20],50 µM (inactive)
same,IC50,[21],13.9 µM (active)
same,EC50,[22],23 µM (inactive)
same,IC50,[23],19.2 µM (active)
same,IC50,[24],12.7 µM (active)
same,IC50,[25],2.71 µM (active)
same,IC50,[26],3.26 µM (active)
